# ChEMBL document CHEMBL1201862, “PubChem BioAssay data set” (2004)
#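 96-well plates; 48 h exposure; 5 concentrations. Endpoints by linear interpolation between flanking doses. Not reached: highest tested concentration assigned. GI50: concentration for 50% inhibition of growth.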 Calls of active or inactive are those of the source. Cut-off read from the data, not from the text of the source: active = GI50 up to about 1.1 µM and inactive = higher.
# Experiments:
# Assay in all cases: NCI tumour cell line growth inhibition, 48 h
# M19-MEL = system: M19-MEL
# RXF 631 = system: RXF 631
# XF498 = system: XF498
# SNB-78 = system: SNB-78
# KM-20L2 = system: KM-20L2
# DMS-114 = system: DMS-114
# HOP-18 = system: HOP-18
# LXFL 529 = system: LXFL 529
# DLD-1 = system: DLD-1
SMILES,GI50 (M19-MEL),GI50 (RXF 631),GI50 (XF498),GI50 (SNB-78),GI50 (KM-20L2),GI50 (DMS-114),GI50 (HOP-18),GI50 (LXFL 529),GI50 (DLD-1)
CNC(=O)OCc1c2ccncc2c(C)c2c1[nH]c1ccc(OC)cc12,0.344 µM (active),0.675 µM (active),1.03 µM (active),0.119 µM (active),0.227 µM (active),0.226 µM (active),0.254 µM (active),0.115 µM (active),–
O=C(/C=C/c1ccccc1)/C=C/c1ccccc1,20.6 µM (inactive),32.8 µM (inactive),–,92.9 µM (inactive),22.1 µM (inactive),21.6 µM (inactive),28.6 µM (inactive),21.2 µM (inactive),15.1 µM (inactive)
COc1cc2c(cc1OC)C1Cc3cc(OC)c(OC)cc3C(C2)N1C,–,–,> 100 µM (inactive),> 100 µM (inactive),> 100 µM (inactive),–,–,> 100 µM (inactive),> 100 µM (inactive)
CNS(=O)(=O)NNS(=O)(=O)c1ccccc1,> 100 µM (inactive),–,> 100 µM (inactive),–,> 100 µM (inactive),> 100 µM (inactive),> 100 µM (inactive),> 100 µM (inactive),> 100 µM (inactive)
C[Si](C)(C)OC1CC(=O)OC1n1cc(F)c(=O)[nH]c1=O (configuration not stated),12.1 µM (inactive),14.6 µM (inactive),90.2 µM (inactive),–,16.2 µM (inactive),27.2 µM (inactive),23.2 µM (inactive),52.4 µM (inactive),7.62 µM (inactive)
Cc1nc2c(s/c(=N\N)n2-c2ccccc2)c(=O)n1C,> 100 µM (inactive),–,> 100 µM (inactive),> 100 µM (inactive),> 100 µM (inactive),> 100 µM (inactive),–,> 100 µM (inactive),–
O=C(O)CNS(=O)(=O)c1ccc(NC(=O)c2cccc([N+](=O)[O-])c2)cc1,> 100 µM (inactive),> 100 µM (inactive),> 100 µM (inactive),–,> 100 µM (inactive),–,> 100 µM (inactive),> 100 µM (inactive),> 100 µM (inactive)
C/C=C1\CN2CCc3c([nH]c4ccccc34)C2C=C1CCO (configuration not stated),> 340 µM (inactive),> 340 µM (inactive),208 µM (inactive),–,> 340 µM (inactive),> 340 µM (inactive),–,> 340 µM (inactive),> 340 µM (inactive)
O=C1C(=O)C(Br)(Br)C(Br)=C1Br,19.1 µM (inactive),37.9 µM (inactive),–,–,15 µM (inactive),18.8 µM (inactive),15.6 µM (inactive),15.2 µM (inactive),18.8 µM (inactive)
Cc1ccc(C)c(N2C(=O)C(=O)C(c3nc4ccccc4s3)/C(=N\c3cccc4c(=O)[nH][nH]c(=O)c34)C2=O)c1 (configuration not stated),–,> 100 µM (inactive),–,–,> 100 µM (inactive),> 100 µM (inactive),> 100 µM (inactive),> 100 µM (inactive),> 100 µM (inactive)
C=C(CCCCC)CN1CCCC1[C@@](C)(O)CC(=O)OCC (some centres not stated),> 100 µM (inactive),–,> 76.6 µM (inactive),> 100 µM (inactive),> 100 µM (inactive),> 100 µM (inactive),> 100 µM (inactive),> 100 µM (inactive),> 100 µM (inactive)
COc1ccc(C2=CN3CCC[C@H]3C=C2c2cc(O)c(OC)c(OC)c2)cc1OC,0.00274 µM (active),–,–,0.00385 µM (active),0.00887 µM (active),0.00385 µM (active),0.00427 µM (active),0.00389 µM (active),0.00316 µM (active)
Cc1ccc(NC(=O)COC(=O)c2cccc3c(=O)c4ccccc4[nH]c23)cc1,46.7 µM (inactive),24.4 µM (inactive),41 µM (inactive),27.6 µM (inactive),53.2 µM (inactive),34.2 µM (inactive),> 100 µM (inactive),32.1 µM (inactive),14.6 µM (inactive)
O=C(OCCOCCOC(=O)c1c[nH]cc1-c1ccccc1)c1c[nH]cc1-c1ccccc1,18.7 µM (inactive),–,19.9 µM (inactive),19.3 µM (inactive),21.9 µM (inactive),13.8 µM (inactive),–,21.8 µM (inactive),24.8 µM (inactive)
C=C1C(C)C2C(Cc3ccccc3)NC(=O)C23OC(=O)/C=C\CC(=O)CCC(C)C/C=C/C3C1O (configuration not stated),4.3 µM (inactive),–,0.287 µM (active),0.36 µM (active),3.66 µM (inactive),2.42 µM (inactive),0.326 µM (active),–,1.18 µM (inactive)
CC1(C(=O)NCCN(CCNC(=O)C2(C)CC3(C)CC(C)(C2)C(=O)NC3=O)CCNC(=O)C2(C)CC3(C)CC(C)(C2)C(=O)NC3=O)CC2(C)CC(C)(C1)C(=O)NC2=O (configuration not stated),> 100 µM (inactive),–,> 100 µM (inactive),> 100 µM (inactive),> 100 µM (inactive),> 100 µM (inactive),94.4 µM (inactive),> 100 µM (inactive),–
N#CNc1nc(N)c(-c2ccc(Cl)cc2)c(C(=O)Nc2nccs2)n1,> 100 µM (inactive),–,> 100 µM (inactive),> 100 µM (inactive),> 100 µM (inactive),> 100 µM (inactive),> 100 µM (inactive),> 100 µM (inactive),> 100 µM (inactive)
NS(=O)(=O)c1ccc(NC(=O)c2cccc3c(Nc4ccc(S(N)(=O)=O)cc4)c4ccccc4nc23)cc1,21.4 µM (inactive),3.48 µM (inactive),27.2 µM (inactive),29.8 µM (inactive),67.1 µM (inactive),39.3 µM (inactive),> 100 µM (inactive),12.2 µM (inactive),24.7 µM (inactive)
Cc1nn(C(=O)CC(=O)Nc2ccc(Cl)cc2)c(C)c1/N=N/c1ccccc1C(=O)O,> 100 µM (inactive),–,–,> 100 µM (inactive),> 100 µM (inactive),> 100 µM (inactive),–,> 100 µM (inactive),> 100 µM (inactive)
CC(=O)n1c2ccccc2c2nc3nc(Oc4ccc(C)cc4)c4ccccc4c3cc21,> 100 µM (inactive),–,–,42.5 µM (inactive),> 100 µM (inactive),> 100 µM (inactive),–,97.9 µM (inactive),> 100 µM (inactive)
COC(=O)/C(=N\NC(C)(C)C)C(C(=O)OC)C(=O)C(=O)Nc1cc(Cl)ccc1Cl (configuration not stated),> 100 µM (inactive),> 100 µM (inactive),> 100 µM (inactive),> 100 µM (inactive),> 100 µM (inactive),> 100 µM (inactive),> 100 µM (inactive),> 100 µM (inactive),> 100 µM (inactive)
COC(=O)c1ccc(Cl)cc1NC(=O)C1CCCCC1,> 100 µM (inactive),–,–,> 100 µM (inactive),> 100 µM (inactive),> 100 µM (inactive),–,> 100 µM (inactive),–
Nc1ccc(C(=O)Nc2ccccc2N)cc1 [DINALINE],25.7 µM (inactive),37.4 µM (inactive),> 100 µM (inactive),> 100 µM (inactive),–,34.5 µM (inactive),36.7 µM (inactive),22.5 µM (inactive),44.3 µM (inactive)
CO[C@H]1[C@H](O)[C@H](O[C@H]2CC[C@@]3(C)[C@H](CC[C@@H]4[C@@H]3CC[C@]3(C)[C@@H](C5=CC(=O)OC5)CC[C@]43O)C2)O[C@@H](C)[C@@H]1O [NERIIFOLIN],0.00363 µM (active),–,–,0.000552 µM (active),0.00311 µM (active),0.000138 µM (active),0.000476 µM (active),0.00135 µM (active),0.00184 µM (active)
